Publication PMC13095408, “DBeQ derivative targets vacuolar protein sorting 4 functions in cancer cells and suppresses tumor growth in mice” (The Journal of Pharmacology and Experimental Therapeutics, 2025)

Tests used:
U2OS cells = assay: Immunoblot analysis of VPS4- and VCP-mediated pathways (autophagy, ER stress, ERAD); type: cell-based; details: 5 μM DBeQ, 0.6 μM CB-5083, 1 μM 4-107, complete media
Procedure: Whole-cell lysates were prepared in radio-immunoprecipitation buffer (25 mM Tris-HCl, pH 8.0, 150 mM NaCl, 1 mM EDTA, 1% v/v IGEPAL CA-630, 0.5% w/v sodium deoxycholate, and 1% v/v SDS) containing protease (1:250) and phosphatase inhibitor cocktails (1:100) then resolved via SDS-PAGE and probed with the indicated antibodies. Signals were acquired with the Odyssey CLx (LI-COR) for fluorescence or Odyssey XF (LI-COR) for chemiluminescence detection and visualized in Image Studio version 6 (LI-COR).
VPS4 is essential for autophagy and loss of VPS4 function inhibits autophagic flux ([Takahashi et al, 2018]; [Zhen et al, 2019]). Meanwhile, VCP is required for endoplasmic reticulum-associated degradation (ERAD; [Rabinovich et al, 2002]) where VCP inhibition results in the accumulation of ubiquitinated proteins and induction of ER stress ([Weihl et al, 2006]; [Bastola et al, 2016]).

recombinant human VCP [1] = target: T1, recombinant human VCP; assay: VCP ATPase activity, EnzChek Phosphate assay; type: biochemical; details: 0.5 μM enzyme
T1 construct: His (N); host or cells: Escherichia coli BL21(DE3)
T1 sequence (P46462 2-806 limits assumed): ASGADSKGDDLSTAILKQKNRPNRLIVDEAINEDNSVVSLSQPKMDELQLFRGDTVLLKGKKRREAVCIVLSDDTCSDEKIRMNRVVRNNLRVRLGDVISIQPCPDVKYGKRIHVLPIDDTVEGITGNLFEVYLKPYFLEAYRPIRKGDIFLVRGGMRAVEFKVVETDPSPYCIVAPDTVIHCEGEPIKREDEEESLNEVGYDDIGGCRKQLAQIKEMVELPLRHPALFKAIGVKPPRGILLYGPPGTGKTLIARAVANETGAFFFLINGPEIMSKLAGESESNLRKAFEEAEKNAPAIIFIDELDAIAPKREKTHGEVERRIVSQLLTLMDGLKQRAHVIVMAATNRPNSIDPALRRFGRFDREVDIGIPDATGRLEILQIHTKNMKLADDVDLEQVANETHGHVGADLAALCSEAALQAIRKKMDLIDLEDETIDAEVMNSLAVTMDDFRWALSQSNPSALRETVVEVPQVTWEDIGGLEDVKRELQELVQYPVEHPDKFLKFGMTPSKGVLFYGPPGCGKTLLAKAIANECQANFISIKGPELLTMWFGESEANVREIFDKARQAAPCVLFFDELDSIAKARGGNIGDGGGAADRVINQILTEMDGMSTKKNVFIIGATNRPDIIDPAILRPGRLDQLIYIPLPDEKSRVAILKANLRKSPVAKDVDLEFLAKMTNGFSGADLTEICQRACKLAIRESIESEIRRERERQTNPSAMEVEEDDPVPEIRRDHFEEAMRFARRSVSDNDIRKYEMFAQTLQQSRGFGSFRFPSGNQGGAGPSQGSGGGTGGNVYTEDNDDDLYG
Procedure: (§1) VPS4B and VCP ATPase activities were measured using the EnzChek Phosphate assay for the quantification of released phosphate. Assay buffers were based on literature precedents ([Cupido et al, 2019], [2021]) as follows: VPS4B buffer (20 mM HEPES-KOH, pH 7.4, 25 mM KOAc, 2 mM MgCl2, 5 mM (NH4)2SO4, 0.5 mM CaCl2, 2.5 mM DTT, 0.1 mg/mL BSA, 0.005% v/v Triton X-100), VCP buffer (20 mM HEPES-NaOH, pH 7.4, 20 mM NaCl, 10 mM MgCl2, 5 mM (NH4)2SO4, 0.5 mM CaCl2, 2.5 mM DTT, 0.1 mg/mL BSA, 0.005% v/v Triton X-100). In black clear-bottom 384-well plates, 22.5 μL of 5% DMSO or 40× test compounds diluted in the respective assay buffer was added to each well. ATPases were diluted to 1 μM in the respective buffers containing 2× EnzChek Phosphate assay coupling reagents of 400 μM MESG and 2 U of PNP, then 25 μL was added to each well. Plates were mixed at 1000 rpm for 30 minutes at RT while being protected from light. The reaction was initiated by adding 2.5 μL of 20 mM MgATP or water followed by mixing at 1200 rpm for 30 seconds at RT. Plates were measured at 360 nm using a CLARIOstar plate reader (BMG LABTECH) for 20 minutes at 37 °C. ATPase activity was calculated as the amount of phosphate released over a 5-minute interval under linear initial velocity conditions. The remaining ATPase activity was calculated by normalizing compound-treated activity values to the DMSO control. IC50 was calculated by fitting normalized values to a sigmoidal dose-response curve with Hill slope = −1 using Graph Pad Prism 10.0.
(§2) To identify VPS4i, we developed enzyme- and cell-based VPS4 functional assays to serve as VPS4i-screening platforms. For the enzyme-based assay, we used the colorimetric EnzChek Phosphate assay that detects free phosphate with the advantage of continuous measurement of ATP hydrolysis over time. […] Due to the high sequence and structural similarity of AAA-ATPases, we also established a VCP ATPase assay to evaluate hit selectivity. […] For the cell-based assay, our approach was based on how VPS4 inhibition causes the accumulation of ESCRT-III ([Babst et al, 1998]; [Katoh et al, 2003]). We used an N-terminal GFP-tagged CHMP4B reporter system because it is the most abundant ESCRT-III subunit ([Katoh et al, 2004]; [Teis et al, 2008]). Our aim was to test compounds under short-term serum and amino acid starvation to stimulate ESCRT activity for easier detection of inhibitors ([Takahashi et al, 2018], [2019]). […] Overall, we established 2 systems for VPS4i screening, a VPS4B ATPase activity assay and a GFP-CHMP4B accumulation cell-based assay.

recombinant human VCP [2] = target: T2, recombinant human VCP (Rattus norvegicus, UniProt P46462); assay: VCP ATPase activity, EnzChek Phosphate assay; type: biochemical; details: screened at 5 µM; mean ± S.D., Supplemental Table 2
T2 construct: His (N); host or cells: Escherichia coli BL21(DE3)
T2 sequence (P46462 2-806 limits assumed): as above
Procedure: as §1, §2

VPS4B [3] = target: T3, VPS4B (Homo sapiens, UniProt O75351); assay: VPS4B cellular thermal shift assay (CETSA); type: cell-based; parameters: endogenous in cells; host or cells: U2OS; details: 5 μM DBeQ, 1 hour, starved U2OS cells
T3 sequence (O75351 1-444): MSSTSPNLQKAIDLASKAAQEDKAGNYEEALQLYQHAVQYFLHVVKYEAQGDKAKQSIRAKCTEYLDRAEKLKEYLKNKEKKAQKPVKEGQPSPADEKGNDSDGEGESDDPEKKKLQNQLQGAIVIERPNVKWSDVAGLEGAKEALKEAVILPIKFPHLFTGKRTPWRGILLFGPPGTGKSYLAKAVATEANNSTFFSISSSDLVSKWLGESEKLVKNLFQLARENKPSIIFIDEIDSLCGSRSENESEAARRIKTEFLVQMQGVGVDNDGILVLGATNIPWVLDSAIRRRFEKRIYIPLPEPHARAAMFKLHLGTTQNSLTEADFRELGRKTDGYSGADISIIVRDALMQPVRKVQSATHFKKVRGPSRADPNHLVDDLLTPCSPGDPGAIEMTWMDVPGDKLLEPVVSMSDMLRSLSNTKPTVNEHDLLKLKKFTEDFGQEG
Procedure: The VPS4B CETSA was performed as previously described with modification ([Jafari et al, 2014]). In 10-cm dishes, near-confluent U2OS cells were rinsed with 1× DPBS and treated with the indicated compounds in acclimatized SM for 1 hour at 37 °C (0.1% DMSO). Cells were trypsinized, pelleted at 300 × g for 5 minutes, and washed with 1× PBS. After repeat pelleting at 300 × g for 5 minutes, the cells were resuspended in 1× PBS with protease inhibitor cocktail (1:250) and aliquoted into PCR strips with 20 μL per tube. PCR strips for each treatment were heated on a temperature gradient for 3 minutes using a thermal cycler (Bio-Rad Laboratories), followed by incubation at RT for 3 minutes. […] To normalize protein loading for SDS-PAGE, the soluble protein concentration of each 37 °C sample was quantified via the Pierce BCA assay ([…]), and a volume equal to 10 μg of protein was used for all samples from the same treatment. […] Signals were acquired with the Odyssey CLx (LI-COR) and quantified via densitometry using Image Studio version 6 (LI-COR). The remaining VPS4B levels were calculated by first obtaining the ratio of VPS4B:ACTB band intensities of each sample and then normalizing these ratios to that of the respective 37 °C sample. […]

VPS4B [4] = target: T3, VPS4B; assay: VPS4B ATPase activity, EnzChek Phosphate assay; type: biochemical; parameters: His tag (pET28a vector-encoded) (N); made in house; host or cells: Escherichia coli BL21(DE3)
How it was run: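 EnzChek phosphate release (MESG/PNP, 360 nm) with ATPases at 1 μM (diluted stock) in HEPES pH 7.4 buffers with MgCl2, CaCl2, DTT, BSA, Triton; 30 min compound preincubation at RT, started with MgATP, read 20 min at 37 °C. Activity from 5-min linear initial rate, normalized to DMSO; IC50 from Hill slope −1 fit.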

[5] = system: GFP-CHMP4B-expressing U2OS cells; assay: GFP-CHMP4B accumulation cell-based assay (high-content microscopy)
How it was run: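 GFP-CHMP4B U2OS cells were cultured overnight, stained, then treated in SM with compounds (0.1% DMSO or 0.1% DMSO/0.1% ethanol vehicle final). High-content imaging used a 20× NA .70 objective at set intervals, ≥300 cells/well over 3 fields/well.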

[6] = system: i-shVPS4A-expressing crVPS4B U2OS cells; assay: VPS4 synthetic cell death in i-shVPS4A-expressing crVPS4B cells (YOYO-3); type: cell-based; details: 1 μg/mL Dox; 20 μM z-VAD-fmk, 50 μM z-IETD-fmk
Procedure: To measure caspase activity, cells cultured in white opaque-bottom 384-well plates were incubated in the presence or absence of 1 μg/mL Dox for 24 hours. Caspase-Glo 8 or 3/7 reagent was then added 1:1 and allowed to incubate for 90 minutes at RT followed by luminescence measurement using the CLARIOstar microplate reader (BMG LABTECH). Signals had background luminescence subtracted and then normalized to the respective Dox-untreated i-GFP-expressing parental controls to obtain relative CASP8-like LETDase or CASP3/7-like DEVDase activities. For live-cell quantification, the cells seeded on black clear-bottom 96-well plates were incubated with the indicated compounds (0.1% to 0.3% DMSO final) in the presence of 100 nM YOYO-3, a cell-impermeant DNA-binding fluorescent probe that stains membrane integrity-impaired, dead cells. […] Phase and fluorescence images were obtained at the indicated intervals using the IncuCyte S3 Live-Cell Analysis System (Essen BioScience; 10× objective) and then analyzed using the Cell-by-Cell Analysis module (Essen BioScience; 9600-0031) of IncuCyte S3 Software (Essen BioScience; Version 2019B Rev2). To quantify the percentage of dead GFP-expressing cells, the GFP and YOYO-3 double-positive cell population was divided by the total GFP-positive cell population. […]

Molecule | ER stress (HSPA5, ATF4) (U2OS cells) | autophagy (SQSTM1, LC3-II) (U2OS cells) | IC50 (recombinant human VCP [1]) | VCP ATPase (% DMSO) (recombinant human VCP [2]) | change of VPS4B thermal stability (Tagg) (VPS4B [3]) | IC50 (VPS4B [4]; 0.5 μM enzyme) | VPS4B ATPase (% DMSO) (VPS4B [4]; remaining ATPase activity, screened at 5 μM, mean ± SD, Table 1) | VPS4B ATPase (% DMSO) (VPS4B [4]; screened at 5 µM, mean ± S.D., Supplemental Table 2) | accumulation of GFP-CHMP4B ([5]; 2 and 5 μM DBeQ, starved cells, 2 hours) | GFP-CHMP4B (% 4-107) ([5]; screened at 1 µM, mean ± S.D., Supplemental Table 2) | GFP-CHMP4B (% 4-107) ([5]; screened at 1 μM, starvation media, 1 hour, foci intensity per cell normalized to 4-107, mean ± SD, Table 1) | rescue of VPS4 synthetic cell death [6]
c1ccc(CNc2nc(NCc3ccccc3)c3ccccc3n2)cc1 [DBeQ] | mildly induced ER stress | time-dependently inhibited autophagy | 15.9 ± 4.9 µM | 74.64 ± 6.01 % DMSO | subtle thermal destabilization of VPS4B that was not statistically significant | 3.9 ± 1.2 µM | 41.96 ± 7.53 % DMSO | 41.96 ± 7.53 % DMSO | dose-dependent accumulation of GFP-CHMP4B | 8.93 ± 3.51 % 4-107 | 8.93 ± 3.51 % 4-107 | 
z-IETD-fmk |  |  |  |  |  |  |  |  |  |  |  | partially rescued
z-VAD-fmk |  |  |  |  |  |  |  |  |  |  |  | partially rescued
